US20100120084A1, “REACTION MEDIUM FOR IDENTIFYING/DETECTING MICROORGANISMS” (Biomerieux, priority 2007, published 2010)
Where two headings read alike, the source gives them in different places.

Tests used:
[1] = assay type: physicochemical; settings: for native molecule (cloxacillin) found after heating: 31 h at 75° C.
Description: Cloxacillin (molecular mass 475.88) is an antibiotic of β-lactam type, used to inhibit the growth of certain bacterial species such as Enterobacter aerogenes or Escherichia coli. The cyclodextrins of the BioCydex library were incubated with cloxacillin in a 1:1 molar ratio (concentration=210.12 mM), at 20° C. for 72 h (shaking in the dark). The amount of residual cloxacillin was then analyzed by HPLC.
The following tests were carried out in an aqueous medium and at high temperature (75° C.) in order to accelerate the rate of degradation.
The complexes were prepared at ambient temperature with cloxacillin:cyclodextrin molar ratios of 1:16 and of 1:79. The solutions containing 0.63 mM, i.e. 300 mg·L^−1, of cloxacillin were incubated at 75° C. for 31 h. The analysis of the samples and the quantification thereof so as to evaluate the stability of the antibiotic were carried out on a Thermo Finnigan SpectraSYSTEM HPLC system equipped with a P1000XR pump, an AS3000 automatic injector, a UV1000 UV/visible detector, and a Merck Chromolith® Performance RP-18 endcapped column (100-4.6 mm) preceded by a Merck Chromolith® RP-18e guard column (5-4.6 mm).
(§1) The mobile phases were prepared using HPLC-grade acetonitrile and water acidified with trifluoroacetic acid (100 μL/L). A methanol/water gradient of 0/100 to 100/0 was applied in 12 min. After stabilization for 2 min, the column is reequilibrated under the initial conditions. The elution speed is 1 mL/min, the temperature is 22° C. and the detection is carried out at 220 nm. The sample injection volume is 20 μL. The chromatographic data were processed using the Atlas software, version 2003.1 (Thermo Electron Corporation, UK).

[2] = Stability of cefoxitin in the presence of cyclodextrins at 65° C. (HPLC); assay type: physicochemical
Description: 0.444 mM of cefoxitin (Sigma, Ref. C4786-5G) and 8.88 mM of cyclodextrin (ACD N0 or GCD NO or BCD R59 or BCD C15), i.e. in a molar ratio of 1:20, were dissolved with stirring for one hour at ambient temperature. The mixture was then brought to 65° C. for 90 min. The integrity of the cefoxitin was then analyzed by HPLC. The analysis of the samples and the quantification thereof were carried out on a Thermo Finnigan SpectraSYSTEM HPLC system equipped with a P1000XR pump, an AS3000 automatic injector, a UV1000 UV/visible detector, and a Merck Chromolith® Performance RP-18 endcapped column (100-4.6 mm) preceded by a Merck Chromolith® RP-18e guard column (5-4.6 mm).
as §1, with “254” for “220”
The optimization of protection was sought by varying the cefoxitin:cyclodextrin (BCD R59 and BCD C15) molar ratio from 1:1 to 1:216, the other conditions remaining unchanged. […] The improvement in stability was calculated relative to the control without cyclodextrin.

[3] = tested on: β-lactamase; test: β-lactamase resistance to heat degradation (residual amoxicillin by HPLC); settings: for [Amoxicillin] (arbitrary units): amoxicillin 500 mg·L^−1, 5 min at 25° C.
Description: β-Lactamase (Genzyme Biochemicals Ref. BELA-70-1431) in an amount equivalent to 0.375 U·mL^−1 was mixed with the cyclodextrin BCD A56 of the Protéosol® range (1 or 10 mM), at ambient temperature and in the dark, for 30 min. The mixture was then heated at 70° C. for 45 min. […] After incubation for 5 min at 25° C., the residual amoxicillin was analyzed by HPLC.
On the basis of the above profiles, it was possible to quantify the concentration of amoxicillin and to link this value to the β-lactamase activity.

[4] = cloxacillin complexed with cyclodextrin

## randomly 2,3,6-O-(2-hydroxypropyl)cyclomaltoheptaose [BCD R59]
[1]; [4]
  native molecule (cloxacillin) found after heating: 40%

## randomly 2-O-methyl-cyclomaltoheptaose [BCD C15]
[2]
  complexed antibiotic (cefoxitin) less degraded than the molecule alone: approximately 10%
[2]; molar ratios between 1:6 and 1:30, FIG. 2
  protection of cefoxitin, comparison of BCD R59 and BCD C15: most effective
[1]
  protection of cloxacillin against heat degradation, comparison of cyclodextrins: best protection
[1]; [4]
  native molecule (cloxacillin) found after heating: 40%

## 6^I-(3-aminopropylamino)-6^I-deoxycyclomaltoheptaose [BCD A56]
[3]; BCD A56 at 10 mM, reference: absence of cyclodextrin
  protection of the β-lactamase against heat: excellent protection
[3]; β-lactamase + BCD A56
  interaction with the active site of the enzyme: did not interact
[3]; β-lactamase heated 70° C. 45 min + BCD A56 at 1 mM
  [Amoxicillin] (arbitrary units): 4.3 arbitrary units
[3]; β-lactamase heated 70° C. 45 min + BCD A56 at 10 mM
  [Amoxicillin] (arbitrary units): 0.8 arbitrary units

## Cc1onc(-c2ccccc2Cl)c1C(=O)N[C@@H]1C(=O)N2[C@@H]1SC(C)(C)[C@@H]2C(=O)O [cloxacillin, reference compound]
[1]; 31 h, 0.63 mM
  Cloxacillin stability (%): 0.6%
[1]; cloxacillin not associated with cyclodextrin
  native molecule (cloxacillin) found after heating: 0%

## CO[C@@]1(NC(=O)Cc2cccs2)C(=O)N2C(C(=O)O)=C(COC(N)=O)CS[C@@H]21 [cefoxitin, reference compound]
[2]; cefoxitin:cyclodextrin molar ratio 1:50, 90 min at 65° C.
  stability of cefoxitin: 47.5%
[2]; no cyclodextrin, 0.444 mM cefoxitin, 65° C. for 90 min
  Cefoxitin stability/%: 38.5%
